For data set [1], the system named is recombinant NL4-3 virus (nef section replaced with Renilla luciferase gene) in MT-2 cells. In words: HIV cell culture assay (antiviral activity, luciferase readout). As to conditions: NL43, MT-2 cells infected for 4-5 days with recombinant NL4-3 Renilla luciferase virus. The class given is cell-based. In outline: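 MT-2 cells were infected for 4–5 days with NL4-3 reporter virus carrying Renilla luciferase in place of part of nef, in the presence of serially diluted compound. Luciferase activity, read with a live-cell substrate, gave percent inhibition; EC50 derived from the median effect equation.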

Data set [2] can be described thus: Compound cytotoxicity, XTT-based colorimetric assay. Format: cell-based. As to conditions: human; uninfected MT2 cells, day 4, XTT assay. The procedure:
Compound cytotoxicity and the corresponding CC50 values were determined using the same protocol as described in the antiviral assay except that uninfected cells were used. Cytotoxicity was assessed on day 4 in uninfected MT2 cells by using a XTT (2,3-bis[2-Methoxy-4-nitro-5-sulfophenyl]-2H-tetrazolium-5-carboxyanilide inner salt)-based colorimetric assay (Sigma-Aldrich, St Louis, Mo).
On the technique in general: Formazan colour is commonly taken as a measure of viable cells.

The text below walks through data of patent publication US20240374598A1, “INHIBITORS OF HUMAN IMMUNODEFICIENCY VIRUS REPLICATION” (ViiV HEALTHCARE UK (NO.5) LIMITED, priority 2018, published 2024).

One may read the EC50 as the concentration needed to bring the measured effect to its halfway point. A word on the CC50: it is the concentration that lowers cell viability or growth by half. A higher CC50 goes with better tolerance by the cells. In the case of `CC(C)(C)c1ccc2c(=O)n(-c3ccc(Cl)c4c(NS(=O)(=O)C5CC5)nn(CC(F)F)c34)c([C@H](Cc3cc(F)cc(F)c3)NC(=O)Cn3nc(C(F)F)c4c3C(F)(F)[C@@H]3C[C@H]43)nc2c1` [Example 27, N—((S)-1-(7-(tert-butyl)-3-(4-chloro-3-(cyclopropanesulfonamido)-1-(2,2-difluoroethyl)-1H-indazol-7-yl)-4-oxo-3,4-dihydroquinazolin-2-yl)-2-(3,5-difluorophenyl)ethyl)-2-((3bS,4aR)-3-(difluoromethyl)-5,5-difluoro-3b,4,4a,5-tetrahydro-1H-cyclopropa[3,4]cyclopenta[1,2-c]pyrazol-1-yl)acetamide], in data set [1], the EC50 was determined as 0.61 nM. Also, the CC50 at 4 day in data set [2] was > 1000 nM.
Consider `CCCCOc1ccc2c(=O)n(-c3ccc(Cl)c4c(NS(C)(=O)=O)nn(C)c34)c([C@H](Cc3cc(F)cc(F)c3)NC(=O)Cn3nc(C(F)F)c4c3C(F)(F)[C@@H]3C[C@H]43)nc2c1` [Example 11, N—((S)-1-(7-butoxy-3-(4-chloro-1-methyl-3-(methylsulfonamido)-1H-indazol-7-yl)-4-oxo-3,4-dihydroquinazolin-2-yl)-2-(3,5-difluorophenyl)ethyl)-2-((3bS,4aR)-3-(difluoromethyl)-5,5-difluoro-3b,4,4a,5-tetrahydro-1H-cyclopropa[3,4]cyclopenta[1,2-c]pyrazol-1-yl)acetamide], for which the EC50 in data set [1] amounted to 0.208 nM. The CC50 at 4 day in data set [2] is > 1000 nM.
`COc1ccc2c(=O)n(-c3ccc(Cl)c4c(NS(C)(=O)=O)nn(C)c34)c([C@H](Cc3cc(F)cc(F)c3)NC(=O)Cn3ccc(C4CCC4)n3)nc2c1` [Example 7, (S)—N-(1-(3-(4-chloro-1-methyl-3-(methylsulfonamido)-1H-indazol-7-yl)-7-methoxy-4-oxo-3,4-dihydroquinazolin-2-yl)-2-(3,5-difluorophenyl)ethyl)-2-(3-cyclobutyl-1H-pyrazol-1-yl)acetamide]: the EC50 in data set [1] is 0.899 nM. Also, the CC50 at 4 day in data set [2] was > 1000 nM.
For `Cc1ccc2c(=O)n(-c3ccc(Cl)c4c(NS(C)(=O)=O)nn(C)c34)c([C@H](Cc3cc(F)cc(F)c3)NC(=O)Cn3nc(C(F)F)c4c3C(F)(F)[C@@H]3C[C@H]43)nc2c1` [Example 15, N—((S)-1-(3-(4-chloro-1-methyl-3-(methylsulfonamido)-1H-indazol-7-yl)-7-methyl-4-oxo-3,4-dihydroquinazolin-2-yl)-2-(3,5-difluorophenyl)ethyl)-2-((3bS,4aR)-3-(difluoromethyl)-5,5-difluoro-3b,4,4a,5-tetrahydro-1H-cyclopropa[3,4]cyclopenta[1,2-c]pyrazol-1-yl)acetamide] the same measures were 0.071 nM and > 1000 nM.
In the same order, the values of `Cn1nc(NS(C)(=O)=O)c2c(Cl)ccc(-n3c([C@H](Cc4cc(F)cc(F)c4)NC(=O)Cn4nc(C(F)(F)F)c5c4C(F)(F)[C@@H]4C[C@H]54)nc4cc(C(C)(C)C)ccc4c3=O)c21` [Example 26, N—((S)-1-(7-(tert-butyl)-3-(4-chloro-1-methyl-3-(methylsulfonamido)-1H-indazol-7-yl)-4-oxo-3,4-dihydroquinazolin-2-yl)-2-(3,5-difluorophenyl)ethyl)-2-((3bS,4aR)-5,5-difluoro-3-(trifluoromethyl)-3b,4,4a,5-tetrahydro-1H-cyclopropa[3,4]cyclopenta[1,2-c]pyrazol-1-yl)acetamide] are 0.443 nM and > 1000 nM.
Turning to `CC(C)Oc1ccc2c(=O)n(-c3ccc(Cl)c4c(NS(C)(=O)=O)nn(C)c34)c([C@H](Cc3cc(F)cc(F)c3)NC(=O)Cn3nc(C(F)F)c4c3C(F)(F)C3CC43)nc2n1` (stereo in doubt) [Example 38, N—((S)-1-(3-(4-chloro-1-methyl-3-(methylsulfonamido)-1H-indazol-7-yl)-7-isopropoxy-4-oxo-3,4-dihydropyrido[2,3-d]pyrimidin-2-yl)-2-(3,5-difluorophenyl)ethyl)-2-((3bS,4aR)-3-(difluoromethyl)-5,5-difluoro-3b,4,4a,5-tetrahydro-1H-cyclopropa[3,4]cyclopenta[1,2-c]pyrazol-1-yl)acetamide], the EC50 in data set [1] worked out at 0.045 nM. Moreover, in data set [2], the CC50 at 4 day is > 1000 nM.
For the molecule `CCc1ccc2c(=O)n(-c3ccc(Cl)c4c(NS(C)(=O)=O)nn(C)c34)c([C@H](Cc3cc(F)cc(F)c3)NC(=O)Cn3nc(C(F)F)c4c3C(F)(F)[C@@H]3C[C@H]43)nc2c1` [Example 16, N—((S)-1-(3-(4-chloro-1-methyl-3-(methylsulfonamido)-1H-indazol-7-yl)-7-ethyl-4-oxo-3,4-dihydroquinazolin-2-yl)-2-(3,5-difluorophenyl)ethyl)-2-((3bS,4aR)-3-(difluoromethyl)-5,5-difluoro-3b,4,4a,5-tetrahydro-1H-cyclopropa[3,4]cyclopenta[1,2-c]pyrazol-1-yl)acetamide], the EC50 in data set [1] worked out at 0.084 nM. In addition, the CC50 at 4 day in data set [2] is > 1000 nM.
